“And” between values parts separate entries of the source, which are not always exact repeats. Identical values can stand only once. Like-named read-outs stand apart in the source and are kept apart here.

The nature of data set [1]: Experimental solubility in organic solvents.
Source text: (§1) Experimental Solubility of Cryptophane a (Conventional Cryptophane Outside the Invention)
(§2) Experimental Solubility of Cryptophane-1N
A short description of data set [2]: Cavity size by X-ray crystallography. It is filed as physicochemical. Particulars: crystals by slow evaporation in dichloromethane at 4° C. The method, then:
Crystallographic data of both anti and syn cryptophanes 1N were obtained by slow evaporation in dichloromethane at 4° C. The anti compound has a cavity size of 137.0 Å^3 and the syn compound has a cavity size of 121.4 Å^3, both larger than the size of the prior art cryptophane C (114.5 Å^3).
Anti cryptophanes 1N crystals were also obtained by slow evaporation in anisole, which is too large to enter the cage. This enabled to visualise the conformation of the cryptophane 1N and the size of its cavity without caged compound. The size of the empty cavity is between 85.4 and 86.8 Å^3.

A further data set in a line: physchem. Particulars: organic solvent or mixture.
Data set [3] in a line: Encapsulation efficiency by UV spectrophotometry. Format: physicochemical. The method, then: Cryptophanes concentration were defined using spectrophotometry (Infinite M200, Tecan, Mannedorf, Switzerland) by determining absorbance spectrum of Crytophane in solution in MeOH.
The encapsulation efficiency (EE) was determined after filtration through 0.2 μm syringe filters (Minisart® Syringe Filter, Sartorius, Goettingen, Germany) to remove unentrapped cryptophanes. Then, these samples were diluted in methanol (1/100, v/v) and the concentration of cryptophane was determined by spectrophotometry at 288 nm. The EE was determined in duplicate and calculated as follows: […]
A UV calibration curve for each of the compounds was carried out (see protocol above) using a stock solution of Cr1N in acetonitrile (1.05 mg/mL) and a stock solution of cryptophane A in DMSO (1.85 mg/mL), solutions subsequently diluted in methanol.
The batch of nanoemulsions loaded with Cr1N was diluted 100-fold in methanol. Under these conditions, it was confirmed by DLS that the nanoemulsions were destroyed. The amount of cryptophane in this sample was then determined. The concentration of cryptophane in the sample was 28 μM, i.e. an encapsulation efficiency of 60%.

A short description of data set [4]: 129Xe NMR xenon encapsulation. The conditions noted are these: 5 bars, CDCl3, 278 K. It is filed as binding. The text has this:
FIG. 1 illustrates the ^129Xe NMR spectrum (5 bars, CDCl3) of cryptophane-1N 12.
^129Xe NMR (5 bars, CDCl3): illustrated in FIG. 1.

The conditions of data set [5]: prior art cryptophane; cited from earlier work.

Source text for physchem: as §1, §2

In the case of `COc1cc2c3cc1OCCOc1cc4c(cc1OC)Cc1cc5c(OC)cc1Cc1cc(c(OC)cc1C4)OCCOc1cc(c(cc1OC)C3)Cc1cc(OC)c(cc1C2)OCCO5` [Cryptophane A], in data set [1], the “Experimental solubility in MeCN” value is on record as “very poorly soluble”.

`COc1cc2c3cc1OCCOc1ccc4c(c1)Cc1ccc5cc1Nc1ccc(cc1C4)OCCOc1cc(c(cc1OC)Cc1cc(c(OC)cc1C3)OCCO5)C2` [Cryptophane-1N Syn]: in data set [2], the cavity size came to 121.4 Å^3.

`COc1cc2c3cc1OCCOc1ccc4c(c1)Cc1ccc5cc1Nc1ccc(cc1C4)OCCOc1cc(c(cc1OC)C3)Cc1cc(OC)c(cc1C2)OCCO5` [Cryptophane-1N]: in data set [2], the cavity size is 137.0 Å^3. The solubility in “physchem” (Experimental solubility in CHCl3) was more than 8.27 mM; in “physchem” (Experimental solubility in DMSO), > 59500 µg/mL and > 73800 µM; in the data set “physchem” (Experimental solubility in MeCN), more than 2.23 mM. Moreover, in data set [3], the “amount loaded into nanoemulsions relative to cryptophane A” value is given as “more than twice as much”. Further, the Xenon encapsulation result in data set [4] is “successfully encapsulate xenon”.

For the compound cryptophane C, the cavity size in data set [5] is listed as 114.5 Å^3.

Values taken from patent publication US20240124488A1, “AZA-CRYPTOPHANES, PROCESSES FOR PREPARATION THEREOF, AND THEIR USES” (UNIVERSITE DE CAEN NORMANDIE, priority 2021, published 2024).
